Assays:
prostate stromal cells = conditions: in vitro; cited from earlier work
[1] = tested on: adrenergic synapses of the sympathetic nervous system; experiment: SPECT imaging of I-123-radiolabeled mIBG distribution in the heart, combined with x-ray CT; type: in vivo; conditions: human patient, I-123-mIBG, D-SPECT plus CT
Procedure: A human patient was administered I-123-radiolabeled mIBG, a radioactive tracer for adrenergic synapses of the sympathetic nervous system. An image based on mIBG distribution was obtained by SPECT using a D-SPECT® Cardiac Imaging System (Spectrum Dynamics, Israel). The anatomy of the heart was determined by performing x-ray CT imaging and segmenting the obtained x-ray CT images. The x-ray CT data was then combined with the SPECT data so as to construct an image showing mIBG distribution in the heart.

SMILES	mitogenic effect on prostate stromal cells (prostate stromal cells)	mIBG activity in left atrium (site of maximal activity level) ([1]; left atrium, FIGS. 6A-6D)	mIBG activity in right ventricle (site of maximal activity level) ([1]; right ventricle, FIGS. 8A-8B)
NC[C@H](O)c1ccc(O)c(O)c1 [Norepinephrine, norepinephrine]	direct mitogenic effect		
N=C(N)NCc1cccc(I)c1 [mIBG, m-iodobenzylguanidine]		maximal activity level in the left inferior pulmonary vein	maximal activity level in the interventricular septum

— patent US20150366523A1, “NEURONAL IMAGING AND TREATMENT” (priority 2013, published 2015)
